In ChEMBL document CHEMBL1201862, “PubChem BioAssay data set” (2004):
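1) Cells in 96-well plates. 2) Compound, 48 h, 5 concentrations. 3) Linear interpolation between surrounding doses. 4) Unreached endpoint = highest concentration. The concentration for 50% growth inhibition is given as GI50.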 The source made the active and inactive calls. Rule as the data show it: active = GI50 up to about 1.1 µM and inactive = higher.

Tests used:
Experiment in all cases: inhibition of tumour cell growth, NCI panel, 48 h
LOX IMVI = tested on: LOX IMVI
RXF 393 = tested on: RXF 393
OVCAR-4 = tested on: OVCAR-4
UO-31 = tested on: UO-31
ACHN = tested on: ACHN
SK-MEL-2 = tested on: SK-MEL-2
UACC-257 = tested on: UACC-257
MDA-N = tested on: MDA-N
UACC-62 = tested on: UACC-62
786-0 = tested on: 786-0
SR = tested on: SR
DU-145 = tested on: DU-145
SW-620 = tested on: SW-620
HT-29 = tested on: HT-29
NCI/ADR-RES = tested on: NCI/ADR-RES
T47D = tested on: T47D
MDA-MB-435 = tested on: MDA-MB-435
A549 = tested on: A549
OVCAR-3 = tested on: OVCAR-3
NCI-H522 = tested on: NCI-H522

Row | Structure (SMILES) | GI50 (LOX IMVI) | GI50 (RXF 393) | GI50 (OVCAR-4) | GI50 (UO-31) | GI50 (ACHN) | GI50 (SK-MEL-2) | GI50 (UACC-257) | GI50 (MDA-N) | GI50 (UACC-62) | GI50 (786-0) | GI50 (SR) | GI50 (DU-145) | GI50 (SW-620) | GI50 (HT-29) | GI50 (NCI/ADR-RES) | GI50 (T47D) | GI50 (MDA-MB-435) | GI50 (A549) | GI50 (OVCAR-3) | GI50 (NCI-H522)
1 | CCOC(=O)c1cn(-c2ccc([N+](=O)[O-])cc2)c(=S)n2c1nc1ccccc12 | 56.5 µM (inactive) | 63.5 µM (inactive) | 21.6 µM (inactive) | 1.83 µM (inactive) | 32 µM (inactive) | 17.8 µM (inactive) | 30.7 µM (inactive) | 39.7 µM (inactive) | 31.8 µM (inactive) | 30.1 µM (inactive) | 39.5 µM (inactive) | 81.7 µM (inactive) | 47 µM (inactive) | 26.4 µM (inactive) | 20.8 µM (inactive) | 58.6 µM (inactive) | 41.8 µM (inactive) | 36.7 µM (inactive) | 53.7 µM (inactive) | –
2 | COc1cc(/C=C/c2cc(/C=C/c3ccc(O)c(OC)c3)oc(=O)c2)ccc1O | 3.71 µM (inactive) | – | 3.84 µM (inactive) | 3.01 µM (inactive) | 3.26 µM (inactive) | 3.98 µM (inactive) | 5.25 µM (inactive) | 4.7 µM (inactive) | 4.69 µM (inactive) | 5.62 µM (inactive) | 3.07 µM (inactive) | 0.553 µM (active) | 3.13 µM (inactive) | 2.84 µM (inactive) | 4.38 µM (inactive) | 0.272 µM (active) | 3.38 µM (inactive) | 3.17 µM (inactive) | 2.36 µM (inactive) | 2.87 µM (inactive)
3 | N=c1oc2ccccc2cc1C(=O)Nc1ccccn1 | 54 µM (inactive) | > 100 µM (inactive) | > 100 µM (inactive) | – | 53.1 µM (inactive) | 29.4 µM (inactive) | > 100 µM (inactive) | > 100 µM (inactive) | 58.6 µM (inactive) | 37.8 µM (inactive) | 86.7 µM (inactive) | > 100 µM (inactive) | > 100 µM (inactive) | > 100 µM (inactive) | > 100 µM (inactive) | 43.7 µM (inactive) | > 100 µM (inactive) | > 100 µM (inactive) | > 100 µM (inactive) | –
4 | NC(=S)NNC(=S)NC(=O)c1ccco1 | > 10 µM (inactive) | > 10 µM (inactive) | > 10 µM (inactive) | > 10 µM (inactive) | > 10 µM (inactive) | > 10 µM (inactive) | > 10 µM (inactive) | > 10 µM (inactive) | > 10 µM (inactive) | > 10 µM (inactive) | > 10 µM (inactive) | > 10 µM (inactive) | > 10 µM (inactive) | > 10 µM (inactive) | > 10 µM (inactive) | > 10 µM (inactive) | > 10 µM (inactive) | > 10 µM (inactive) | > 10 µM (inactive) | –
5 | CCc1nn(CN2CCOCC2)c(=S)n1/N=C/c1ccc(-c2ccc(Cl)cc2)o1 | > 100 µM (inactive) | > 100 µM (inactive) | > 100 µM (inactive) | > 100 µM (inactive) | > 100 µM (inactive) | > 100 µM (inactive) | > 100 µM (inactive) | > 100 µM (inactive) | – | > 100 µM (inactive) | 80.5 µM (inactive) | > 100 µM (inactive) | > 100 µM (inactive) | > 100 µM (inactive) | > 100 µM (inactive) | > 100 µM (inactive) | > 100 µM (inactive) | > 100 µM (inactive) | > 100 µM (inactive) | > 100 µM (inactive)
6 | COc1ccc(C(=O)c2sc(N(C)C)nc2-c2ccccc2)cc1 | 37.4 µM (inactive) | 54.3 µM (inactive) | 23.4 µM (inactive) | 32.1 µM (inactive) | 33.7 µM (inactive) | 22.5 µM (inactive) | 26.1 µM (inactive) | 18.1 µM (inactive) | 30.8 µM (inactive) | 34.4 µM (inactive) | 17.1 µM (inactive) | 49 µM (inactive) | 30.9 µM (inactive) | 32.9 µM (inactive) | 19.8 µM (inactive) | 33.6 µM (inactive) | 6.4 µM (inactive) | 36 µM (inactive) | 16.8 µM (inactive) | –
7 | CSc1ncc2c(C#N)c3sc4ccccc4n3c(=O)c2n1 | > 100 µM (inactive) | > 100 µM (inactive) | 45.8 µM (inactive) | > 100 µM (inactive) | > 100 µM (inactive) | > 100 µM (inactive) | > 100 µM (inactive) | > 100 µM (inactive) | > 100 µM (inactive) | 41.8 µM (inactive) | 19.6 µM (inactive) | > 100 µM (inactive) | 22 µM (inactive) | > 100 µM (inactive) | 38.8 µM (inactive) | 91.8 µM (inactive) | > 100 µM (inactive) | 78.3 µM (inactive) | > 100 µM (inactive) | –
8 | COC(=O)C(Cc1ccccc1)NC(=O)CCCNC(=O)OCc1ccccc1 (stereo not given) | > 100 µM (inactive) | < 0.01 µM (active) | > 100 µM (inactive) | > 100 µM (inactive) | 33 µM (inactive) | – | – | 63.7 µM (inactive) | 49.9 µM (inactive) | > 100 µM (inactive) | 44.7 µM (inactive) | > 100 µM (inactive) | > 100 µM (inactive) | > 100 µM (inactive) | > 100 µM (inactive) | 71.3 µM (inactive) | 86.1 µM (inactive) | > 100 µM (inactive) | > 100 µM (inactive) | > 100 µM (inactive)
9 | O=C(Nc1ccccc1Cl)c1cc(S(=O)(=O)Nc2n[nH]c(=O)n2-c2ccccc2)c(S)cc1Cl | > 100 µM (inactive) | > 100 µM (inactive) | > 100 µM (inactive) | > 100 µM (inactive) | – | > 100 µM (inactive) | > 100 µM (inactive) | > 100 µM (inactive) | > 100 µM (inactive) | > 100 µM (inactive) | > 100 µM (inactive) | > 100 µM (inactive) | > 100 µM (inactive) | > 100 µM (inactive) | > 100 µM (inactive) | > 100 µM (inactive) | > 100 µM (inactive) | – | > 100 µM (inactive) | –
10 | O=C(Cn1c(C(=O)/C=C/c2ccc(Cl)c(Cl)c2)nc2ccccc21)c1ccccc1 | 17.9 µM (inactive) | 24 µM (inactive) | 25.6 µM (inactive) | 24.8 µM (inactive) | 28 µM (inactive) | 19.8 µM (inactive) | 27.7 µM (inactive) | 19.9 µM (inactive) | 31 µM (inactive) | 18.8 µM (inactive) | 25 µM (inactive) | 32.9 µM (inactive) | 33.3 µM (inactive) | 16 µM (inactive) | 21.8 µM (inactive) | 31 µM (inactive) | 19.1 µM (inactive) | 21.7 µM (inactive) | 15.2 µM (inactive) | –
11 | COc1cc2c(cc1C)NC(=O)/C2=C/c1c(Cl)n(-c2ccccc2)c2ccccc12 | 7.33 µM (inactive) | 11.2 µM (inactive) | – | 49.2 µM (inactive) | 12.7 µM (inactive) | 11.4 µM (inactive) | 20.5 µM (inactive) | 15.1 µM (inactive) | 19.3 µM (inactive) | 15.3 µM (inactive) | 6.12 µM (inactive) | 31.8 µM (inactive) | 13.9 µM (inactive) | 5.25 µM (inactive) | 16.8 µM (inactive) | 4.54 µM (inactive) | 15.1 µM (inactive) | 7 µM (inactive) | 7.91 µM (inactive) | 11.4 µM (inactive)
